# pIC50: −log10 of the molar value.
# Assays:
# psoriasis model = conditions: administered by injection; cited from earlier work
# multiple sclerosis model = conditions: administered by injection; cited from earlier work
# [1] = tested on: patients with moderate to severe psoriasis; conditions: cited from earlier work
# [2] = target: T1, RORγt ligand-binding domain (RORγt-LBD) (Homo sapiens, UniProt P51449); experiment: Time-resolved FRET (TR-FRET) RORγt coactivator assay (RIP140 peptide displacement); format: biochemical; conditions: ligand-dependent coactivator-RORγt binding
# T1 construct: 20 nM recombinantly expressed RORγ-LBD fused to GST
# T1 sequence (P51449 269-508 limits assumed): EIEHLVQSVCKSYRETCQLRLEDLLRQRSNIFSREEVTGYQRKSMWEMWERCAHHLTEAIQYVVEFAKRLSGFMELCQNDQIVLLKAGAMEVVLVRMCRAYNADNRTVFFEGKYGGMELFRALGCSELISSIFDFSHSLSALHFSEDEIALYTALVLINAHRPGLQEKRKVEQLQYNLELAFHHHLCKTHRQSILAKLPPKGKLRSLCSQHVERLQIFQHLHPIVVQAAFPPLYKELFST
# Method in brief: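 GST-tagged RORγt-LBD (20 nM) with 30 nM biotinylated RIP140 peptide, 1 nM streptavidin-terbium and 20 nM d2-anti-GST in CHAPS buffer with DTT, EDTA, BSA; 1% DMSO. Compounds 0.3 nM–30 μM, 2 h dark, room temperature. Coactivator displacement lowers TR-FRET signal; IC50 (μM) and Emax (%) derived.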
# human RORγt [3] = target: T2, human RORγt (Homo sapiens, UniProt P51449); experiment: IL-17 secretion from EL4 murine lymphoma overexpressing human RORγt; format: cell-based; set-up: V5-His (named only through the vector pcDNA3.1D/V5-His-TOPO); expressed in transfected cells; conditions: IL-17 secretion inhibition in human RORγt-transfected EL4 Tcells, PMA/ionomycin stimulation
# T2 sequence (P51449 1-497 isoform P51449-2): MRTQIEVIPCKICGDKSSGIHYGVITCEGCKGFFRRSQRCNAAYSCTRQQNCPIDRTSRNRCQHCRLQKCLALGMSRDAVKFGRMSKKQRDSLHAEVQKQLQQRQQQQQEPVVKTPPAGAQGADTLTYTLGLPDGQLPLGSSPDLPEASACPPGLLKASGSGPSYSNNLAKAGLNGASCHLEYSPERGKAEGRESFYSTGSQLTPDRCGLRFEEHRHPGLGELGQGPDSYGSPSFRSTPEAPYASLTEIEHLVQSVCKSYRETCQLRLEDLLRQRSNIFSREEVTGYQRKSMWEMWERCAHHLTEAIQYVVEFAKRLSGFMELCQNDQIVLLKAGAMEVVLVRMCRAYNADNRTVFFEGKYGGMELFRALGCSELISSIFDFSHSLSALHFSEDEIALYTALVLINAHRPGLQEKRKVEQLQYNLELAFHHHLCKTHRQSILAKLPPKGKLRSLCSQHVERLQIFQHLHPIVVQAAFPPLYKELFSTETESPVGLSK
# Method in brief: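 EL4 murine lymphoma cells electroporated with hRORγt plasmid, seeded 150000 cells/well, pretreated with compound, then stimulated with PMA (10 ng/mL) and ionomycin (1 μM final) with compound for a further 24 h at 37° C. IL-17 in supernatant measured by HTRF or ELISA.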
# human RORγt [4] = target: T2, human RORγt; experiment: RORE Luciferase/RORγt transactivation assay (IL-17 promoter luciferase reporter in COS-7 cells); format: cell-based; set-up: V5-His (named only through the vector pcDNA3.1D/V5-His-TOPO); expressed in transfected cells; host or cells: COS-7 (monkey kidney); conditions: RORγt activity inhibition, luciferase activity in transfected COS-7 cells, 20 h
# Method in brief: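 COS-7 cells co-transfected with human RORγt and luciferase reporter driven by 4.3 kb IL-17 promoter with CNS enhancer, seeded in serum-free, phenol red-free DMEM. Compounds added at 0.3% DMSO final; luciferase read by Steady-Glo luminescence. IC50 (μM) and Emax (%) reported.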
# [5] = relative to placebo, patients with moderate to severe psoriasis
compound,measurement,setting,value
Cc1ccc([C@@H](NC(=O)Cc2ccc3oc([C@@H](O)c4c(C)noc4C)cc3c2)c2ccccc2)c(C)c1 [TMP778],efficacy in psoriasis model,psoriasis model,efficacious
CC(=O)Nc1nc(C)c(S(=O)(=O)Nc2ccc(C(O)(C(F)(F)F)C(F)(F)F)cc2)s1 [SR1001],efficacy in multiple sclerosis model,multiple sclerosis model,efficacious
CCS(=O)(=O)c1ccc(CNC(=O)c2cnc3c(c2)CN(C[C@H]2CC[C@H](C(F)(F)F)CC2)[C@H]3C(C)C)nc1 [VTP-43742],reduction in the Psoriasis Area Severity Index (PASI) score relative to placebo,[1]; 350 mg dose group,24%
same,placebo-adjusted PASI score reduction,[1]; 700 mg dose group,30%
same,Psoriasis Area Severity Index (PASI) score,[1]; [5],reduced
same,plasma IL-17 levels,[1]; [5],reduced
"Cc1ccc(C(NC(=O)Cc2ccc(N3CCS(=O)(=O)CC3)cc2C)c2ccc(C)o2)c(N2CCCCC2)c1 (stereo not drawn) [Cpd. 18, 2-[4-(1,1-dioxo-1-thiomorpholin-4-yl)-2-methylphenyl]-N-{[4-methyl-2-(piperidin-1-yl)phenyl](5-methylfuran-2-yl)methyl}acetamide]",pIC50,[2],> 6.00
same,pIC50,human RORγt [3],> 6.00
same,pIC50,human RORγt [4],> 7.00
